Experimental data: publication PMC11919252 (eLife, 2025)
“Also recorded” adds a separate entry of the source. Structures can show the parent of a compound that is named as a salt.

Tests used:
[1] = test system: WT and Tac1::Calca DKO mice; assay: Chloroquine-induced itch; format: in vivo, mouse; details: chloroquine 20 μl of 25 μM intradermal, nape of neck; 15 min; WT n=8, DKO n=11
Description: Hair from the nape of the mouse’s neck was removed 2–3 days prior to behavioral experiments using VEET hair removal cream and the area thoroughly washed and moisturizing cream applied. Mice were habituated to transparent acrylic chambers (10cm x 10cm x 13 cm) 30 min prior to injection. Post habituation, a blinded investigator injected 20 μl of 25 μM Chloroquine diphosphate salt (Sigma-Aldrich: C6628) solution in 0.9% saline intradermally into the nape of the neck using a 31 G insulin syringe. Videos were quantified by a separate blinded investigator with a scratching bout counted each time the mouse attended to the injected area with the hind paw after the paw was removed from the floor or mouth.

[2] = test system: Substance P receptor (NKR1) in Substance P-sniffer HEK293 cells co-cultured with DRG neurons; assay: Co-culture of DRG neurons and Substance P-sniffer cells (Substance P release); format: cell-based, mouse; details: capsaicin 10 μM
[3] = test system: hindpaw of WT and DKO mice; assay: Hindpaw swelling (edema), plethysmometer; format: in vivo, mouse; details: for Swelling of the hindpaw, DKO versus WT: observation after injection of CFA, PGE2, AITC or capsaicin
Description: (§1) Mice were anesthetized using isoflurane. 200 μl of Evans Blue dye was injected into the mouse’s tail vein. 15 mins later, one hindpaw was injected with an algogen. After a further 30 min, the volume of each paw was measured by displacement using a plethysmometer (Ugo Basile). Both paws were then cut at the ankle and placed in tubes in the oven at 55 °C for 24 hr to dry. 1 ml of formamide was then added to each paw and incubated for 4-6 days at 55 °C to extract the dye from the paw tissue. 50 μl samples of dye-infused formamide from each paw were then dispensed to a 96-well plate in duplicate, along with a range of Evans blue dilutions in formamide to generate a standard curve. The optical density of each sample was then measured using a plate-reader, and the concentration of Evans Blue per paw sample interpolated from the standard curve to generate an index of extravasation in that paw.

[4] = test system: hindpaw of WT and DKO mice; assay: Plasma extravasation, Evans blue assay; format: in vivo, mouse; details: for Paw swelling and plasma extravasation (images): injected (left) compared to uninjected (right) paw, WT and DKO mice
Description: as §1

[5] = test system: dorsal horn of WT and DKO mice; assay: Capsaicin-evoked dorsal horn Fos staining; format: in vivo, mouse; details: capsaicin 0.3% hindpaw; WT n=5, DKO n=4
Description: […]. After 1 week, mice were habituated then the stimulation was performed. For capsaicin-evoked dorsal horn Fos, capsaicin (0.3%) was injected into the right hindpaw of mice in chambers on a plexiglass stand. For Fos elicited by dynamic allodynia stimulation, mice that received a spared nerve injury procedure 3 weeks prior were stimulated with a paint brush while housed on a wire mesh stand (3x10 min stimulation period, with 1-min rest every 10 min). Note that for SNI experiments, the CTB was injected into the contralateral paw, because severing two branches of the sciatic nerve would have prevented efficient CTB transit in the ipsilateral paw. The mice were perfused as above and spinal cords were harvested 75–120 min after stimulation. The sections were incubated in a blocking buffer (5% goat serum; 0.1% Triton X-100; PBS) for 3 hr at room temperature on a shaker. The sections were incubated in 1:1000 rabbit anti Fos primary antibody (Cell Signaling Technology, Phospho-c-Fos (Ser32) (D82C12) XP Rabbit mAb, #5348) at room temperature overnight. […] This ensured Fos activity was measured only in those sections strongly innervated by the hindpaw. The number of Fos-positive nuclei in the dorsal horn were quantified in ImageJ/FIJI software (National Institute of Health) by a blinded observer using a semi-automated procedure. […]

[6] = test system: WT and Tac1::Calca DKO mice; assay: Capsaicin-evoked licking; format: in vivo, mouse; details: 0.3% capsaicin, 20 µl intraplantar, 5 min
Description: (§2) 0.3% capsaicin in 80% saline / 10% Tween-80 /10% ethanol or 1% AITC in saline was injected into the plantar surface of the hind paw. The injected volume for both was 20 µl. Mice were video-taped for 5 min. A blinded observer scored the amount of time in seconds the mouse spent licking the injected paw in a 5-min time period.

[7] = test system: CGRP receptor (Calcrl and Ramp1) in CGRP-sniffer HEK293 cells co-cultured with DRG neurons; assay: Co-culture of DRG neurons and CGRP-sniffer cells (CGRP release); format: cell-based, mouse
[8] = test system: WT and Tac1::Calca DKO mice; assay: Oxaliplatin cold allodynia, Cold Plate; format: in vivo, mouse; details: intraplantar oxaliplatin, one day after treatment, Cold Plate at 10 °C, 5 min
Source text: The plate was set to the desired temperature. A camera set up with a mirror was used for better visibility of the mouse on the hot plate. A clear cylindrical tube was placed around the hot plate to ensure the mouse cannot escape. Once the hot plate reached the set temperature, the mouse was placed on the hot plate and the top of the cylinder was covered. At the cut-off time, the mouse was taken off the hot plate and placed back in the cage. The latency to lick was scored post-hoc using the recorded videos by a blinded observer.
Chemotherapy-induced neuropathy was induced in mice by intraplantar injection of oxaliplatin into the left hind paw ([Deuis et al., 2013]; [MacDonald et al., 2021]). Oxaliplatin was made up to a dose of 80 µg in 40 µl of 5% glucose solution, due to its instability in chloride-containing saline solution. The number of nocifensive behaviors in 5 min was assessed on the Cold Plate held at 10 °C 24 hr later.

[9] = test system: WT and Tac1::Calca DKO mice; details: background statement on oxaliplatin; ref MacDonald et al., 2021; cited from earlier work
Source text: Lastly, we investigated how dual peptide deletion affected the development of allodynia symptoms, where innocuous stimuli are perceived as painful, in two mouse models of neuropathic pain ([Jensen and Finnerup, 2014]).

[10] = test system: WT and Tac1::Calca DKO mice; details: 0.6% acetic acid, intraperitoneal, 10 μl/g; 15 min from 5 min after injection; WT n=9, DKO n=7
Description: Mice were habituated on a plexiglass stand for 1 hr. 0.6% of acetic acid was injected intraperitoneally at a dose of 10 μl/g weight of the animal. Mice were videotaped for 20 min. The number of writhes was quantified post-hoc by a blinded observer during a 15-min interval between 5 and 20 min after injection.

[11] = test system: WT and Tac1::Calca DKO mice; assay: Conditioned taste aversion; format: in vivo, mouse; details: LiCl 200 mg/kg; saccharin 15 mM; WT n=7, DKO n=6
Description: Mice were single-housed and habituated for 3 days to drink from two glass bottles with stainless-steel ball-bearing spouts. Mice then received 3 days of training, where they were water-deprived for 22 hr followed by 30 min exposure to a single water-containing bottle, then 90 min exposure to both bottles. On the conditioning day, after 22 hr of water deprivation, mice were exposed to a single bottle containing saccharin water (15 mM) for 45 min. Mice were then injected with lithium chloride (200 mg/kg) or PBS, and then given ordinary water for 75 min. The animals were then water deprived for a further 22 hr. On the test day, mice were simultaneously exposed to a bottle containing water and a bottle containing saccharin for 45 min. The volume of each solution consumed was measured by weighing the bottles before and after. To calculate the saccharin preference index of each animal, the volume of saccharin consumed was divided by the total of fluid consumed, with a value less than 0.5 indicating the development of an aversion to saccharin.

[12] = test system: WT and Tac1::Calca DKO mice; assay: Inflammatory heat hypersensitivity (Hargreaves); format: in vivo, mouse; details: PGE2 20 μl, 500 nM intraplantar; up to 120 min; WT n=10, DKO n=10
Description: The radiant heat stimulus was aimed for the centre of the plantar region of the mouse’s hind paw. The active intensity of the low stimulus was 40 intensity units, and of the high stimulus 55. The response latency was recorded for five trials with 10 min breaks in between each trial.
(§3) CFA and PGE2 was purchased from Sigma. 20 μl of CFA was injected into the heel of the hind paw. PGE2 (20 μl, 500 nM) was injected into the plantar surface of the hindpaw, and behavior was assessed over the same time-frame that produces in vivo sensitization of nociceptor responses (up to 120 min). Inflammation-induced hypersensitivity was measured using the Hargreaves and the von Frey, as described above.

[13] = test system: WT and Tac1::Calca DKO mice; assay: Inflammatory mechanical hypersensitivity (von Frey); format: in vivo, mouse; details: PGE2 20 μl, 500 nM intraplantar; up to 120 min; WT n=6, DKO n=6
Description: Punctate mechanical sensitivity was measured using the up-down method of Chaplan to obtain a 50% withdrawal threshold ([Chaplan et al., 1994]). Mice were habituated on a mesh wire stand for 1 hr. A 0.16 g Von Frey hair was applied to the plantar region of the paw for 2 s. A response was recorded when the mouse swiftly lifted its paw in response to the stimulus. […] To calculate the 50% withdrawal threshold, five responses surrounding the 50% threshold were obtained after the first change in response. The pattern of responses was used to calculate the 50% threshold = (10[χ+κδ]/10,000), where χ is the log of the final von Frey filament used, κ=tabular value for the pattern of responses and δ the mean difference between filaments used in log units. The log of the 50% threshold was used to calculate summary and test statistics.
as §3

[14] = test system: WT and Tac1::Calca DKO mice; assay: AITC-evoked licking; format: in vivo, mouse; details: 1% AITC in saline, 20 µl intraplantar; 5 min; WT n=12, DKO n=12
Description: as §2

CCN(CC)CCCC(C)Nc1ccnc2cc(Cl)ccc12 (stereo not drawn) [chloroquine, Chloroquine diphosphate salt]
Scratching [1]: DKO mice scratched robustly

COc1cc(CNC(=O)CCCC/C=C/C(C)C)ccc1O [capsaicin]
Substance P-sniffer GCaMP response evoked by capsaicin ([2]; DKO DRG neurons): no Substance P-sniffer cell responses | Substance P-sniffer GCaMP6s fluorescence ([2]; WT versus DKO DRG co-culture, n=12 wells from 2 mice per genotype): increase in Substance P-sniffer GCaMP6s fluorescence when cultured with DRGs from WT, but not DKO, mice | Substance P-sniffer GCaMP response evoked by capsaicin ([2]; control (WT) DRG neurons): robust GCaMP responses | Paw swelling by volume, WT versus DKO ([3]; capsaicin injection, 30 min, normalized to uninjected paw, WT n=9, DKO n=7): no appreciable differences in capsaicin-induced swelling between WT and DKO mice | Swelling of the hindpaw, DKO versus WT [3]: provoked swelling of the hindpaw of DKO mice to a similar extent as WT mice | Plasma extravasation ([4]; capsaicin injection, Evans blue optical density normalized to uninjected paw, WT n=9, DKO n=7): plasma extravasation was intact in DKO mice | Paw swelling and plasma extravasation (images) [4]: both WT and DKO mice show paw swelling and plasma extravasation | Capsaicin-evoked dorsal horn Fos expression [5]: No differences in dorsal horn Fos expression were observed | Licking responses after capsaicin ([6]; WT n=9, DKO n=8): evoked coping-like licking responses in both genotypes | Licking, difference WT versus DKO after capsaicin ([6]; unpaired t-test): differences did not reach statistical significance | CGRP-sniffer activity evoked by DKO neurons ([7]; capsaicin application, DKO DRG neurons): markedly reduced activity | CGRP-sniffer calcium response evoked by capsaicin ([7]; capsaicin application, WT DRG neurons): strong increases in calcium | CGRP-sniffer GCaMP6s fluorescence ([7]; capsaicin, WT versus DKO DRG co-culture, n=18 wells from 3 mice per genotype): increase in CGRP-sniffer GCaMP6s fluorescence when cultured with DRGs from WT, but not DKO, mice

O=C1[O][Pt]2([NH][C@@H]3CCCC[C@H]3[NH]2)[O]C1=O [oxaliplatin]
Pain-like behaviors on Cold Plate [8]: both DKO and WT animals displayed pronounced pain-like behaviors | Cold allodynia evoked by oxaliplatin [9]: evokes extreme cold allodynia

CC(=O)O [acetic acid]
Writhing behavior [10]: comparable writhing behavior in both WT and DKO mice

[Cl-].[Li+] [LiCl, lithium chloride]
Conditioned taste aversion to saccharin [11]: pronounced aversion to the usually-preferred saccharin; also recorded: strong and indistinguishable conditioned taste aversion in both WT and DKO mice

CCCCC[C@H](O)/C=C/[C@H]1[C@H](O)CC(=O)[C@@H]1C/C=C\CCCC(=O)O [PGE2, Prostaglandin E2]
Heat hypersensitivity, Hargreaves [12]: short-lasting heat and mechanical hypersensitivity to a similar extent in both WT and DKO mice | Swelling of the hindpaw, DKO versus WT [3]: provoked swelling of the hindpaw of DKO mice to a similar extent as WT mice | Mechanical hypersensitivity, von Frey [13]: short-lasting heat and mechanical hypersensitivity to a similar extent in both WT and DKO mice

C=CCN=C=S [AITC, allyl isothiocyanate]
Swelling of the hindpaw, DKO versus WT [3]: provoked swelling of the hindpaw of DKO mice to a similar extent as WT mice | Paw swelling and plasma extravasation (images) [4]: both WT and DKO mice show paw swelling and plasma extravasation | Licking behavior after AITC [14]: evoked similar licking behavior to capsaicin that was unaffected by peptide deletion
